# In paper PMC6199744, “Development of Chemical Proteomics for the Folateome and Analysis of the Kinetoplastid Folateome” (ACS Infectious Diseases, 2018):
# Like-named read-outs stand apart in the source and are kept apart here.
# Columns and labels:
# Format in all cases: binding
# [1] = target: T1, HeLa cell extract proteins (Homo sapiens, UniProt Q13126); conditions: HeLa
# T1 construct: endogenous in cells; host or cells: HeLa cell extract
# T1 sequence (Q13126 1-283): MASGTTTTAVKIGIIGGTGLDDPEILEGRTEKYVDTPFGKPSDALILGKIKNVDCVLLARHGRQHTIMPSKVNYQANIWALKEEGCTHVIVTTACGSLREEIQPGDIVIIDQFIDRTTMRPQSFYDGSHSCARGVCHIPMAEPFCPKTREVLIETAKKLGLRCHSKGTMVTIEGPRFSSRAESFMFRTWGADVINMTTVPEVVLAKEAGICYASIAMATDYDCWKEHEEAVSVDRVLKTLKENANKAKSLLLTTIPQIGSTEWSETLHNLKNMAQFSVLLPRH
# [2] = target: T2, HeLa cell extract proteins (Homo sapiens, UniProt Q5SRE5); conditions: HeLa
# T2 construct: endogenous in cells; host or cells: HeLa cell extract
# T2 sequence (Q5SRE5 whole entry): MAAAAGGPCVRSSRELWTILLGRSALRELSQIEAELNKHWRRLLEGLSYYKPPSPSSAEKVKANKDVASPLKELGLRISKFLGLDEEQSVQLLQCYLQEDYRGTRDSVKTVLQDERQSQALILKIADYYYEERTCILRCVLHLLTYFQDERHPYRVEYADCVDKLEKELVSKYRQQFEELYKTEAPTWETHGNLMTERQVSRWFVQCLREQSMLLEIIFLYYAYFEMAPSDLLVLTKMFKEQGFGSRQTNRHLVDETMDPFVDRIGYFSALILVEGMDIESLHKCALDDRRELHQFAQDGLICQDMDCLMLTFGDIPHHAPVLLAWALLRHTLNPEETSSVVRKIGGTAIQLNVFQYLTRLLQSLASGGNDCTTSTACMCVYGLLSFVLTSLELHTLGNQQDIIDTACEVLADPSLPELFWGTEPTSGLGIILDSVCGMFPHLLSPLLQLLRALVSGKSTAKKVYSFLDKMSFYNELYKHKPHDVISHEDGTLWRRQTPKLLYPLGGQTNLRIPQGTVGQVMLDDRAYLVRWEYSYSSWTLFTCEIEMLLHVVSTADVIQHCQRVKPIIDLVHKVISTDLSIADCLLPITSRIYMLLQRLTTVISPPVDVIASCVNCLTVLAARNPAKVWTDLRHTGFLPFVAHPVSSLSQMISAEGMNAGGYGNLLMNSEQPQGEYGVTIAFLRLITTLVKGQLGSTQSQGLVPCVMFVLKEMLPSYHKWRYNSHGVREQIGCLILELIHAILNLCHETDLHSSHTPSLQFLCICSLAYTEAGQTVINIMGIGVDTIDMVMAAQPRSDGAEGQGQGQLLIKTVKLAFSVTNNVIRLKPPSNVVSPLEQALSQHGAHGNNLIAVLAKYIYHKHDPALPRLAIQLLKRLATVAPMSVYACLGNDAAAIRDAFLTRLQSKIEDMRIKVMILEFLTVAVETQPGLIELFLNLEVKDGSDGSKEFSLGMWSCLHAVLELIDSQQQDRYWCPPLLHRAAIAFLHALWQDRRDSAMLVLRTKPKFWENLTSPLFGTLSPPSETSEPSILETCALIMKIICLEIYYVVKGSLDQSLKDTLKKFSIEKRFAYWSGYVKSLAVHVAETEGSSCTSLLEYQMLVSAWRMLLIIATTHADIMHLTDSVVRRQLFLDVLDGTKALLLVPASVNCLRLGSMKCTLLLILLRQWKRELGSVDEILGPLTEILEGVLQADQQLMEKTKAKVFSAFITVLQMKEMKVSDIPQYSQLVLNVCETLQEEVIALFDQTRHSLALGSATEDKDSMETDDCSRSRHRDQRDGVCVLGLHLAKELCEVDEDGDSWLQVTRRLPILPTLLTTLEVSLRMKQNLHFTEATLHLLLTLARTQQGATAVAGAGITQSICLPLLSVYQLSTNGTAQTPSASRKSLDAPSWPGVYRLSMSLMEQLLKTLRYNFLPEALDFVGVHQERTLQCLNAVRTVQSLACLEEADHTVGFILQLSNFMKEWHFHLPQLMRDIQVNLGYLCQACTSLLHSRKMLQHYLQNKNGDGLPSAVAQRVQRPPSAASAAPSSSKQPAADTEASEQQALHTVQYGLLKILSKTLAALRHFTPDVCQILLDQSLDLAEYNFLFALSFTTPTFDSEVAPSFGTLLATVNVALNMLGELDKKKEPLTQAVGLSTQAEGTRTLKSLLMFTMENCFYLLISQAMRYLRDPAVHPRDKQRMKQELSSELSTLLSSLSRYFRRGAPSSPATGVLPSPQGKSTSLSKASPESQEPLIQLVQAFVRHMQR
# [3] = target: T3, HeLa cell extract proteins (Homo sapiens, UniProt P61619); conditions: HeLa; protein SEC61A1
# T3 construct: endogenous in cells; host or cells: HeLa cell extract
# T3 sequence (P61619 whole entry): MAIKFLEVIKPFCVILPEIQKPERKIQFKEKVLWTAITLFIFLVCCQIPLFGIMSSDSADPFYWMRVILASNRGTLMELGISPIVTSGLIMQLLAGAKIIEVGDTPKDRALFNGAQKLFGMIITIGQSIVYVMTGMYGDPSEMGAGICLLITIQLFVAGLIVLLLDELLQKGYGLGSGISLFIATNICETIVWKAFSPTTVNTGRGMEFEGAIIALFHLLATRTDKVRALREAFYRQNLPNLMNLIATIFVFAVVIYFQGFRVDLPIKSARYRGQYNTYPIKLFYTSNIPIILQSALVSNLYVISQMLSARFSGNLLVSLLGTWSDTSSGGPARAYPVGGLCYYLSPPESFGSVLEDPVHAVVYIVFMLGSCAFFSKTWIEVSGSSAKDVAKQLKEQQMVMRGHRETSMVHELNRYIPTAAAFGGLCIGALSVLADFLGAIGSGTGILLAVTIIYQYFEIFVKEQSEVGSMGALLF
# [4] = target: T4, HeLa cell extract proteins (Homo sapiens, UniProt P30876)
# T4 construct: endogenous in cells; host or cells: HeLa cell extract
# [5] = target: T5, HeLa cell extract proteins (Homo sapiens, UniProt P00367)
# T5 construct: endogenous in cells; host or cells: HeLa cell extract
# [6] = target: T6, HeLa cell extract proteins (Homo sapiens, UniProt Q01650); conditions: HeLa
# T6 construct: endogenous in cells; host or cells: HeLa cell extract
# T6 sequence (Q01650 whole entry): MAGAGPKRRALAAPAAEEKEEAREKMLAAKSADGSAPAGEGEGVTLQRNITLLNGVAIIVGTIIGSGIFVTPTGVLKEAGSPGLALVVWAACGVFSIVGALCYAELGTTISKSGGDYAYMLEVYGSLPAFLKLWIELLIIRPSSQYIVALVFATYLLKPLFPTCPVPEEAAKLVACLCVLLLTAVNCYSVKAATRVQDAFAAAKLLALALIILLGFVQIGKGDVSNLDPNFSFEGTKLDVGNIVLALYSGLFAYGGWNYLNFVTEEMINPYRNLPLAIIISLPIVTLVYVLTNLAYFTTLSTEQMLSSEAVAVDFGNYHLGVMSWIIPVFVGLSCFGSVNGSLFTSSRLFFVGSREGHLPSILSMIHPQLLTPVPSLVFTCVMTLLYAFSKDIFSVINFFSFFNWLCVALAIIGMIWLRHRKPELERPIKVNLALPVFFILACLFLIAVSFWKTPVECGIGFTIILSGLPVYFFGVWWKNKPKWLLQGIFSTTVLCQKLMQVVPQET
# [7] = target: T7, HeLa cell extract proteins (Homo sapiens, UniProt Q9NR09); conditions: HeLa
# T7 construct: endogenous in cells; host or cells: HeLa cell extract
# [8] = target: T8, HeLa cell extract proteins (Homo sapiens, UniProt Q9Y6K9); conditions: HeLa
# T8 construct: endogenous in cells; host or cells: HeLa cell extract
# T8 sequence (Q9Y6K9 whole entry): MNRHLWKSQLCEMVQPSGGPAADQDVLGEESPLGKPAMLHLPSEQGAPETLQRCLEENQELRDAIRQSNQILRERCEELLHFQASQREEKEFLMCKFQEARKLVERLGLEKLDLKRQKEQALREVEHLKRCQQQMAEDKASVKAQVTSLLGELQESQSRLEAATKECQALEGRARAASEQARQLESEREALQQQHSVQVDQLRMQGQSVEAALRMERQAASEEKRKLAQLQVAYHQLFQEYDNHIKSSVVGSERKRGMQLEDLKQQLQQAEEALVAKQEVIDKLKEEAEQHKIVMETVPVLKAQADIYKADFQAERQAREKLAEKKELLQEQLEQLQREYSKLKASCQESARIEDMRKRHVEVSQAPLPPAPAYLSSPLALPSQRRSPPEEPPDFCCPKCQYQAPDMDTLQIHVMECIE
# [9] = target: T9, HeLa cell extract proteins (Homo sapiens, UniProt P46940)
# T9 construct: endogenous in cells; host or cells: HeLa cell extract
# T9 sequence (P46940 whole entry): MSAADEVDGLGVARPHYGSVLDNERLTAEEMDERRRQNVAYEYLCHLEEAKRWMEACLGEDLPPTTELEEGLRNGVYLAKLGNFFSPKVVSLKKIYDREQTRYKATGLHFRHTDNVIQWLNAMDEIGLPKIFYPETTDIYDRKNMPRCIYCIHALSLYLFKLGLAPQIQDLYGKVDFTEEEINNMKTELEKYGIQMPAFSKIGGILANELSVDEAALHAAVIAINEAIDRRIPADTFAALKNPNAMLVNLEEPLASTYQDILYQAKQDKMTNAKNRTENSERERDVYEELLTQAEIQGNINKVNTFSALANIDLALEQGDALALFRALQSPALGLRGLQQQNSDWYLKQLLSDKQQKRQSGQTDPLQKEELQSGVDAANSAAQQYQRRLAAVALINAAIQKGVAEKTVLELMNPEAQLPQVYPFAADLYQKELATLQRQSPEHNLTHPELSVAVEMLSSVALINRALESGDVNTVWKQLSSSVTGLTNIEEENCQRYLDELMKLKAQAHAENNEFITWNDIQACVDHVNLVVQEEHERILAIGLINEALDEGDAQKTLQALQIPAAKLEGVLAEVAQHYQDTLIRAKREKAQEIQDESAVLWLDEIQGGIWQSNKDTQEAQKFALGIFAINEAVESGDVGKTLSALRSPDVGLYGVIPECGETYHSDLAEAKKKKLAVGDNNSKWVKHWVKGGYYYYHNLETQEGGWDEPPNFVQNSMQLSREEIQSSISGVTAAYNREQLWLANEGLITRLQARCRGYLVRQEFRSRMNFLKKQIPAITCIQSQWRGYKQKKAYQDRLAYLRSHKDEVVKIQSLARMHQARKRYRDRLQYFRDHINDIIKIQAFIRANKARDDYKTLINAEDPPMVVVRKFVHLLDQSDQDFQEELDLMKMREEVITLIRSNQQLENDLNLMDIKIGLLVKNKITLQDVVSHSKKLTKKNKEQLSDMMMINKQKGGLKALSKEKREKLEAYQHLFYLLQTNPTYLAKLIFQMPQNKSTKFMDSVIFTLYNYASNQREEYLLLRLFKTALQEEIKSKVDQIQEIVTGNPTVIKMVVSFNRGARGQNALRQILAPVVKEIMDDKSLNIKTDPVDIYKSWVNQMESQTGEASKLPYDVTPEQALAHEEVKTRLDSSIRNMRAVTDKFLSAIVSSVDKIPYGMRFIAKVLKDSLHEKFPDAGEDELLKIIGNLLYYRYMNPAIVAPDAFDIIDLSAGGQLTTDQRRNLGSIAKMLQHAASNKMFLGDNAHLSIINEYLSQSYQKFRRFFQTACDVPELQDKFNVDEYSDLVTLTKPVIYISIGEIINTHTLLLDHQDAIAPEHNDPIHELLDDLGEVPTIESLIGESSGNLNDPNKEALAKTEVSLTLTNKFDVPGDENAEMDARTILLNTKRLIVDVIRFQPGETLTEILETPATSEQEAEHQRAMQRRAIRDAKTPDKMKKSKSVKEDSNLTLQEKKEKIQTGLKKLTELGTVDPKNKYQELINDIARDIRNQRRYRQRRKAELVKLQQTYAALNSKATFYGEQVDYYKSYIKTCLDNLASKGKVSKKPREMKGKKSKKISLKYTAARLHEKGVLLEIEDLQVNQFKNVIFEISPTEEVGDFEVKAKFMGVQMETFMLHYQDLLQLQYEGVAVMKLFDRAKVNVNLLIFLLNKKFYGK
# [10] = target: T10, HeLa cell extract proteins (Homo sapiens, UniProt Q7L1Q6)
# T10 construct: endogenous in cells; host or cells: HeLa cell extract
# T10 sequence (Q7L1Q6 1-419): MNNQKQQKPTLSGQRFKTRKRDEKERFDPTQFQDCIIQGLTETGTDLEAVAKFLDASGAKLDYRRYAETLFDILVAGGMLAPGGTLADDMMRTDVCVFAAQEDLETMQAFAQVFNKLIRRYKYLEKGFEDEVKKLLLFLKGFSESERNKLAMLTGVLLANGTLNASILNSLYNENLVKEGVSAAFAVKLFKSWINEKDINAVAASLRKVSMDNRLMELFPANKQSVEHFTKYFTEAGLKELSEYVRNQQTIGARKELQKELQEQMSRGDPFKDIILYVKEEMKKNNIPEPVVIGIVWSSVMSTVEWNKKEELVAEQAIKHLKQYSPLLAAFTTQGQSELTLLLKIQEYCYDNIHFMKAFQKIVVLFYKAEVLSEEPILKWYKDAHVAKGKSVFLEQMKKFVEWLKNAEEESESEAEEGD
# [11] = target: T11, HeLa cell extract proteins (Homo sapiens, UniProt O60701)
# T11 construct: endogenous in cells; host or cells: HeLa cell extract
# T11 sequence (O60701 1-494): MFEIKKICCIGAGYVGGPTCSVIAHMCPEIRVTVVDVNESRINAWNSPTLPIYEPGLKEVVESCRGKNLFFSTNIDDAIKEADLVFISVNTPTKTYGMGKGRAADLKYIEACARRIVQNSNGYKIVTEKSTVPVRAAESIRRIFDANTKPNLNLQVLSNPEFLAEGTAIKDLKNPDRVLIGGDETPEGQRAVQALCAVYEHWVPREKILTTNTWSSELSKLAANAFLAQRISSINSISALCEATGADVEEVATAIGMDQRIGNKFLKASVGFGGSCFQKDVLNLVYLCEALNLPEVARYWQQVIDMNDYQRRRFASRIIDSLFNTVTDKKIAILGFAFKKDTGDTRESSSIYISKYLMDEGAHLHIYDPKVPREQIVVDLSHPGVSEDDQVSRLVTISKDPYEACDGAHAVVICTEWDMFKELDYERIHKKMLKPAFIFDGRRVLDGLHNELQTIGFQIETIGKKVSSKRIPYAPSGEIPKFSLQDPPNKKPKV
# [12] = target: T12, HeLa cell extract proteins (Homo sapiens, UniProt P24534); conditions: protein EEF1B2; HeLa
# T12 construct: endogenous in cells; host or cells: HeLa cell extract
# T12 sequence (P24534 1-225): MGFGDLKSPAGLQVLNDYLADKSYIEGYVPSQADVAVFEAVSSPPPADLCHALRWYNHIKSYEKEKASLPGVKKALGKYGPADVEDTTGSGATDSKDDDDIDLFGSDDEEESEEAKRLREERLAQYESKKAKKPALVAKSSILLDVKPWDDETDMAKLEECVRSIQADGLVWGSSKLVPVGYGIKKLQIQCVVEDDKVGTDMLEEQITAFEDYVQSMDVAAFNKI
# [13] = target: T13, HeLa cell extract proteins (Homo sapiens, UniProt Q9NQR4); conditions: HeLa
# T13 construct: endogenous in cells; host or cells: HeLa cell extract
# T13 sequence (Q9NQR4 1-276): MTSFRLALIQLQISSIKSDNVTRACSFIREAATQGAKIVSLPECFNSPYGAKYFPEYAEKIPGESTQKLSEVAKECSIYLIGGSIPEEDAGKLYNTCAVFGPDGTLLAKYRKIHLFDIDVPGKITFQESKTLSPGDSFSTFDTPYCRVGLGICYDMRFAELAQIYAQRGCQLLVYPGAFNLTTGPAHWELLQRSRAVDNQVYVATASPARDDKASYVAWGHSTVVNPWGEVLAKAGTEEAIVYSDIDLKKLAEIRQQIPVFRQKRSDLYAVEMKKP
# [14] = target: T14, HeLa cell extract proteins (Homo sapiens, UniProt P54819); conditions: HeLa
# T14 construct: endogenous in cells; host or cells: HeLa cell extract
# [15] = target: T15, HeLa cell extract proteins (Homo sapiens, UniProt P42356); conditions: HeLa
# T15 construct: endogenous in cells; host or cells: HeLa cell extract
# [16] = protein BIRC6 (B[…] REPEAT-CONTAINING 6)
# [17] = protein IKBKG (INHIBITOR OF KAPPAB KINASE GAMMA)
SMILES,fold changes relative to vehicle control ([1]; protein MTAP),fold changes relative to vehicle control ([2]; protein NUP188),fold changes relative to vehicle control [3],fold changes relative to vehicle control ([4]; HeLa; protein POLR2B),fold changes relative to vehicle control ([5]; protein GLUD1; HeLa),fold changes relative to vehicle control ([6]; protein SLC7A5),fold changes relative to vehicle control ([7]; protein BIRC6),fold changes relative to vehicle control ([8]; captured protein IKBKG),fold changes relative to vehicle control ([9]; protein IQGAP1; HeLa),fold changes relative to vehicle control ([10]; protein BZW1; HeLa),fold changes relative to vehicle control ([11]; protein UGDH; HeLa),fold changes relative to vehicle control [12],fold changes relative to vehicle control ([13]; protein NIT2),fold changes relative to vehicle control ([14]; captured protein AK2),fold changes relative to vehicle control ([15]; captured protein PI4KA),fold changes relative to vehicle control ([1]; captured protein MTAP),fold changes relative to vehicle control ([2]; captured protein NUP188),fold changes relative to vehicle control ([4]; protein POLR2B; HeLa),fold changes relative to vehicle control ([5]; HeLa; protein GLUD1),fold changes relative to vehicle control ([6]; captured protein SLC7A5),also measured
CCCCCCOc1cccc(Cc2cnc(N)nc2N)c1 [compound 2],0.78,1.08,1.01,1.42,1.33,1.01,0.92,1.1,1.69,1.52,1.76,1.63,1.12,1,1.14,–,–,–,–,–,–
NCCOCCOCC(=O)Nc1nc2ncc(CNc3ccc(C(=O)NC(CCC(=O)O)C(=O)O)cc3)nc2c(=O)[nH]1 (stereo not drawn) [compound 6],–,–,1.03,–,–,–,–,–,–,–,–,1.07,–,–,–,0.95,1.17,1.07,1.07,0.76,"fold changes relative to vehicle control [7, 16]: 1.06; fold changes relative to vehicle control [8, 17]: 0.96; fold changes relative to vehicle control ([9]; HeLa; protein IQGAP1): 1.25; fold changes relative to vehicle control ([10]; HeLa; protein BZW1): 1.21; fold changes relative to vehicle control ([11]; HeLa; protein UGDH): 1.41; fold changes relative to vehicle control ([13]; captured protein NIT2): 0.84; fold changes relative to vehicle control ([14]; protein AK2): 0.95; fold changes relative to vehicle control ([15]; protein PI4KA): 0.94"
CCCCCCOc1ccc(Cc2cnc(N)nc2N)cc1 [compound 1],0.9,1.07,1.02,0.94,1.09,0.97,1.06,1.08,0.99,1.09,1.13,1.03,0.99,1.04,0.71,–,–,–,–,–,–
NCCCNc1ccc(C(=O)NC(CCC(=O)O)C(=O)O)cc1 (stereo not drawn) [compound 7],–,–,1.06,–,–,–,–,–,–,–,–,0.87,–,–,–,1.01,1.07,0.91,0.97,0.97,"fold changes relative to vehicle control [7, 16]: 1.12; fold changes relative to vehicle control [8, 17]: 1.15; fold changes relative to vehicle control ([9]; HeLa; protein IQGAP1): 1.18; fold changes relative to vehicle control ([10]; HeLa; protein BZW1): 0.98; fold changes relative to vehicle control ([11]; HeLa; protein UGDH): 0.9; fold changes relative to vehicle control ([13]; captured protein NIT2): 0.96; fold changes relative to vehicle control ([14]; protein AK2): 1.08; fold changes relative to vehicle control ([15]; protein PI4KA): 1.02"
